The test system of one assay is healthy adults. Put plainly: Phase 1 trials, waking EEG. The assay is classed as in vivo, human.
A further assay has as its system normal volunteers. Put plainly: Afternoon nap model of insomnia in normal volunteers. The format is in vivo, human.
The test system of another assay is diabetic rats. Particulars: 19.8% deficit in diabetic rats; cited from earlier work.
In assay [1] the test system is DOI-induced hypolocomotion in rats. Put plainly: Attenuation of DOI-induced hypolocomotion in rats. The assay is classed as in vivo, rat. Particulars: compound 1-10 mg/kg p.o., DOI 1 mg/kg s.c. The protocol:
In this example, compounds of the invention were tested for inverse agonist activity by determining whether these compounds could attenuate DOI-induced hypolocomotion in rats in a novel environment. DOI is a potent 5-HT2A/2C receptor agonist that crosses the blood-brain barrier. The standard protocol used is described briefly below.
Male Sprague-Dawley rats weighing between 200-350 g were used for all tests. Rats were housed three to four per cage.
(R)-DOI HCl (C11H16INO2.HCl) was obtained from Sigma-Aldrich and was dissolved in 0.9% saline. Compounds of the invention were synthesized at Arena Pharmaceuticals Inc., San Diego, Calif. and were dissolved in 100% PEG400. DOI was injected s.c. in a volume of 1 mL/kg, while compounds of the invention were administered p.o. in a volume of 1 mL/kg.
The “Motor Monitor” (Hamilton-Kinder, Poway, Calif.) was used for all activity measurement. This apparatus recorded rears using infrared photobeams. […]
In determining the effects of compounds of the invention on DOI-induced hypoactivity, animals were first injected with vehicle or the compound of the invention (1-10 mg/kg) in their home cages. […] Ten minutes after DOI administration, animals were placed into the activity apparatus and rearing activity was measured for 10 min.
Results (total rears over 10 min) were analyzed by t-test. […]

The next assay deals with JC virus. The settings on record: human glial cells; cited from earlier work.
In another assay the test system is heatstroke. The settings on record: during heatstroke; cited from earlier work.
Assay [2] has as its system diabetic nephropathy patients. The settings on record: 24 months of treatment; cited from earlier work.
For assay [3], the system named is thermal induced pain in rats. The settings on record: intraperitoneal administration; cited from earlier work.
Assay [4] concerns inflammatory pain in rats. Particulars: intrathecal or intraperitoneal administration; cited from earlier work.
A further assay has as its system humans. Particulars: lumbar disc herniation; cited from earlier work.

Structures are written as SMILES.

On to `COc1ccc(NC(=O)Nc2ccc(F)cc2F)cc1-c1c(Br)cnn1C` [APD125], for which the “effect on waking EEG” value in the assay with healthy adults is reported as “vigilance-lowering effects”. Further, in the assay on healthy adults (waking EEG), the “dose of maximal vigilance-lowering effects” value was in the range of 40 to 80 mg and the “time of peak effects after dosing” value was 2 to 4 h. For the same compound, in the assay on normal volunteers (human, in vivo), the “microarousals, number of sleep stage shifts and number of awakenings after sleep onset” value was “decreased”; the sleep onset latency entry is “not decreased”. For the same compound, in the assay with normal volunteers (primarily during the early part of sleep), the “slow wave sleep and associated parameters” value was “increased slow wave sleep and associated parameters in a dose-dependent manner”.
On to `O=CN1CCC(C(=O)NCCN2CCC(=C3c4ccccc4C=Cc4ccccc43)CC2)CC1` [AT-1015], for which the “correction of sciatic motor conduction deficit” value (from here on “correction”) in the assay on diabetic rats is 82.6-99.7%.
As for `O=C(c1cccn2ccnc12)N1CCN(CCc2ccccc2F)CC1` [Compound 18, (4-(2-Fluorophenethyl)piperazin-1-yl)(imidazo[1,2-a]pyridin-8-yl)methanone], the “attenuation of DOI-induced hypolocomotion (total rears over 10 min)” value in assay [1] is “attenuated DOI-induced hypolocomotion”.
On the same count and under the same terms, the entry for `O=C(c1cccn2ccnc12)N1CCN(CCc2ccc(Cl)cc2Cl)CC1` [Compound 19, (4-(2,4-Dichlorophenethyl)piperazin-1-yl)(imidazo[1,2-a]pyridin-8-yl)methanone] is “attenuated DOI-induced hypolocomotion”.
Consider `O=C(c1ccc(F)cc1)C1CCN(CCn2c(=O)[nH]c3ccccc3c2=O)CC1` [ketanserin], for which the JC virus infection result in the assay with JC virus is on record as “inhibited”. Besides, the “protection against circulatory shocks, intracranial hypertension and cerebral ischemia” value in the assay with heatstroke was “protect against circulatory shocks, intracranial hypertension and cerebral ischemia”.
Regarding `Cc1nc2sccn2c(=O)c1CCN1CCC(=C(c2ccc(F)cc2)c2ccc(F)cc2)CC1` [ritanserin], the “correction” value in the assay with diabetic rats is reported as 82.6-99.7%. Also, the JC virus infection result in the assay with JC virus is “inhibited”.
`COc1cccc(CCc2ccccc2OCC(CN(C)C)OC(=O)CCC(=O)O)c1` (stereo not drawn) [sarpogrelate]: the “correction” value in the assay with diabetic rats was 82.6-99.7%. Moreover, in assay [2], the “urinary albumin excretion level” value was “significantly reduced”. Further, the “analgesic effect on thermal induced pain” value in assay [3] is on record as “significant analgesic effect”. The “analgesic effect on inflammatory pain” value in assay [4] is listed as “significant analgesic effect”. Besides, in the assay with humans, the “treatment of lower back pain, leg pain and numbness associated with sciatica” value was “effective treatment”.

The record behind these values is patent US10058549B2, “Imidazo[1,2-α]pyridine derivatives as modulators of the 5-HT2A serotonin receptor useful for the treatment of disorders related thereto” (Arena Pharmaceuticals, Inc., priority 2007, dated 2018).
